Values of other authors in paper PMC11676896, “Protective Action of Cannabidiol on Tiamulin Toxicity in Humans—In Vitro Study” (International Journal of Molecular Sciences, 2024).

Legend:
CYP1A1 = system: CYP1A1; set-up: method as in PMID 26187180; conditions: cited from earlier work
[1] = set-up: method as in previous studies; conditions: CBD 1.56 and 3.125 µg/mL; ref previous studies; cited from earlier work

## C=C(C)[C@@H]1CCC(C)=C[C@H]1c1c(O)cc(CCCCC)cc1O [CBD, cannabidiol]
CYP1A1
  induction of CYP1A1 expression: strongest inducer of CYP1A1 expression
[1]
  cell viability with CBD alone: did not show a decrease in cell viability
